Results taken from patent US20260055088A1, “HETEROCYCLIC COMPOUND, METHOD FOR PREPARING SAME, AND PHARMACEUTICAL USE THEREOF” (Jiangsu Hengrui Pharmaceuticals Co., Ltd., priority 2022, published 2026).
Where a name gives a salt, the structure may show the parent alone.

Target: Nav1.8 ion channel stably expressed on HEK293 cells (Homo sapiens (Human), UniProt Q9Y5Y9)
Assay: Inhibitory activity against Nav1.8, manual patch clamp
Assay type: cell-based
Conditions: resting protocol (-80 mV to 10 mV), 1 μM TTX, read-out: IC50 for the inhibition of Nav1.8 channel activity
Excerpt: The objective of the experiment was to investigate the effects of the compounds on the Nav1.8 ion channel in ex vivo experiments. The Nav1.8 ion channel is stably expressed on HEK293 cells. After the Nav1.8 current stabilized, the effects of the compounds on the Nav1.8 ion channel were obtained by comparing the magnitudes of the Nav1.8 currents before and after the compounds were applied.
• 1) A patch clamp amplifier: patch clamp PC-505B (WARNER instruments)/MultiClamp 700A (Axon instrument) • 2) A digital-to-analog converter: Digidata 1440A (Axon CNS)/Digidata 1550A (Axon instruments) • 3) A micromanipulator: MP-225 (SUTTER instrument) • 4) An inverted microscope: TL4 (Olympus) • 5) Glass micropipette puller: PC-10 (NARISHIGE) • 6) Microelectrode glass capillaries: B12024F (Wuhan VitalSense Scientific Instruments Co., Ltd.) • 7) Dimethyl sulfoxide (DMSO) D2650 (Sigma-Aldrich) • 8) TTX AF3014 (Affix Scientific)
The compounds for preparing the intracellular and extracellular fluids were purchased from Sigma (St. Louis, MO) except for the NaOH and KOH for the acid-base titrations. The extracellular fluid (mM) was: NaCl, 137; KCl, 4; CaCl2, 1.8; MgCl2, 1; HEPES, 10; glucose, 10; pH 7.4 (NaOH titration). The intracellular fluid (mM) was: aspartic acid, 140; MgCl2, 2; EGTA, 11; HEPES, 10; pH 7.2 (CsOH titration). All test and control compound solutions contained 1 μM TTX.
The test compounds were stored at a concentration of 9 mM in dimethyl sulfoxide (DMSO). On the testing day, the compounds were further dissolved in the extracellular fluid to prepare the required concentrations.
1) After the compounds were prepared into solutions with specified concentrations, the compound solutions were sequentially added to channels in ascending order according to their concentrations, and each channel was labeled.
2) A cell was transferred to the perfusion chamber. Positive pressure was applied inside the electrode, and the electrode tip was brought into contact with the cell. The three-way valve of the suction device was switched to the state where all three ways were open, and negative pressure was then applied to the electrode, allowing a high-resistance seal to form between the electrode and the cell. The application of negative pressure was continued to rupture the cell membrane, leading to the formation of a current pathway.
3) After the cell membrane rupture current stabilized, perfusion was performed with different concentrations in sequence. If the current remained stable for at least one minute, perfusion was performed with the next concentration.
4) The perfusion chamber was cleaned. The perfusion chamber was rinsed with the compound solutions in descending order according to their concentrations, with each concentration applied for 20 s. Finally, the perfusion chamber was rinsed with the extracellular fluid for 1 min.
The cell was clamped at −80 mV and then depolarized to 10 mV using a square wave lasting for 10 ms to obtain a Nav1.8 current. This procedure was repeated once every 5 seconds. The maximum current induced by the square wave was detected. After the current stabilized, perfusion was performed with the test compounds. After the reaction stabilized, the strength of the blocking was calculated.
The data were stored on a computer system and analyzed. Data acquisition and analysis were performed using pCLAMP 10 (Molecular Devices, Union City, CA), and the results were reviewed by a manager. “Current stabilized” means that the changes in current over time were within a limited range. The magnitude of the current after stabilization was used to calculate the effect of the compound at this […].
The inhibitory activity of the compounds of the present disclosure against Nav1.8 was determined through the above assay.

SMILES	IC50 [nM]
COc1c([C@H]2[C@H](C(=O)Nc3ccnc(OC[C@H](O)CO)c3)O[C@@](C)(C(F)(F)F)[C@H]2C)ccc(F)c1F [Example 2, (2R,3S,4S,5R)-3-(3,4-Difluoro-2-methoxyphenyl)-N-(2-((R)-2,3-dihydroxypropoxy)pyridin-4-yl)-4,5-dimethyl-5-(trifluoromethyl)tetrahydrofuran-2-carboxamide]	2.89
COc1c([C@H]2[C@H](C(=O)Nc3ccnc(C(C)(C)O)c3)O[C@@](C)(C(F)(F)F)[C@H]2C)ccc(F)c1F [Example 3, (2R,3S,4S,5R)-3-(3,4-Difluoro-2-methoxyphenyl)-N-(2-(2-hydroxypropan-2-yl)pyridin-4-yl)-4,5-dimethyl-5-(trifluoromethyl)tetrahydrofuran-2-carboxamide]	2.65
CONC(=O)c1cc(NC(=O)[C@@H]2O[C@@](C)(C(F)(F)F)[C@@H](C)[C@H]2c2ccc(F)c(F)c2OC)ccn1 [Example 5, 4-((2R,3S,4S,5R)-3-(3,4-Difluoro-2-methoxyphenyl)-4,5-dimethyl-5-(trifluoromethyl)tetrahydrofuran-2-carboxamido)-N-methoxypicolinamide]	0.71
COc1c([C@H]2[C@H](C(=O)Nc3ccnc(C(N)CO)c3)O[C@@](C)(C(F)(F)F)[C@H]2C)ccc(F)c1F (stereo partly drawn) [Example 6, (2R,3S,4S,5R)—N-(2-(1-Amino-2-hydroxyethyl)pyridin-4-yl)-3-(3,4-difluoro-2-methoxyphenyl)-4,5-dimethyl-5-(trifluoromethyl)tetrahydrofuran-2-carboxamide]	1.87
COc1c([C@H]2[C@H](C(=O)Nc3ccnc(NC(N)=O)c3)O[C@@](C)(C(F)(F)F)[C@H]2C)ccc(F)c1F [Example 9, (2R,3S,4S,5R)-3-(3,4-Difluoro-2-methoxyphenyl)-4,5-dimethyl-5-(trifluoromethyl)-N-(2-ureidopyridin-4-yl)tetrahydrofuran-2-carboxamide]	3.24
COc1c([C@H]2[C@H](C(=O)Nc3ccnc(NC(C)=O)c3)O[C@@](C)(C(F)(F)F)[C@H]2C)ccc(F)c1F [Example 11, (2R,3S,4S,5R)—N-(2-Acetamidopyridin-4-yl)-3-(3,4-difluoro-2-methoxyphenyl)-4,5-dimethyl-5-(trifluoromethyl)tetrahydrofuran-2-carboxamide]	1.54
COc1c([C@H]2[C@H](C(=O)Nc3ccnc(C(=O)N4CCCN4)c3)O[C@@](C)(C(F)(F)F)[C@H]2C)ccc(F)c1F [Example 14, (2R,3S,4S,5R)-3-(3,4-Difluoro-2-methoxyphenyl)-4,5-dimethyl-N-(2-(pyrazolidine-1-carbonyl)pyridin-4-yl)-5-(trifluoromethyl)tetrahydrofuran-2-carboxamide]	2.12
COc1c([C@H]2[C@H](C(=O)Nc3ccnc(C(=O)N4CCCO4)c3)O[C@@](C)(C(F)(F)F)[C@H]2C)ccc(F)c1F [Example 15, (2R,3S,4S,5R)-3-(3,4-Difluoro-2-methoxyphenyl)-N-(2-(isoxazolidine-2-carbonyl)pyridin-4-yl)-4,5-dimethyl-5-(trifluoromethyl)tetrahydrofuran-2-carboxamide]	1.78
COc1c([C@H]2[C@H](C(=O)Nc3ccnc(C(=O)NOCC4CC4)c3)O[C@@](C)(C(F)(F)F)[C@H]2C)ccc(F)c1F [Example 18, N-(Cyclopropylmethoxy)-4-((2R,3S,4S,5R)-3-(3,4-difluoro-2-methoxyphenyl)-4,5-dimethyl-5-(trifluoromethyl)tetrahydrofuran-2-carboxamido)picolinamide]	1.89
CNNC(=O)c1cc(NC(=O)[C@@H]2O[C@@](C)(C(F)(F)F)[C@@H](C)[C@H]2c2ccc(F)c(F)c2OC)ccn1 [Example 19, (2R,3S,4S,5R)-3-(3,4-Difluoro-2-methoxyphenyl)-4,5-dimethyl-N-(2-(2-methylhydrazine-1-carbonyl)pyridin-4-yl)-5-(trifluoromethyl)tetrahydrofuran-2-carboxamide]	1.01
C/N=C(\N)c1cc(NC(=O)[C@@H]2O[C@@](C)(C(F)(F)F)[C@@H](C)[C@H]2c2ccc(F)c(F)c2OC)ccn1 [Example 21, (2R,3S,4S,5R)-3-(3,4-Difluoro-2-methoxyphenyl)-4,5-dimethyl-N-(2-((Z)—N′-methylcarbamimidoyl)pyridin-4-yl)-5-(trifluoromethyl)tetrahydrofuran-2-carboxamide]	1.35
CCNNC(=O)c1cc(NC(=O)[C@@H]2O[C@@](C)(C(F)(F)F)[C@@H](C)[C@H]2c2ccc(F)c(F)c2OC)ccn1 [Example 22, (2R,3S,4S,5R)-3-(3,4-Difluoro-2-methoxyphenyl)-N-(2-(2-ethylhydrazine-1-carbonyl)pyridin-4-yl)-4,5-dimethyl-5-(trifluoromethyl)tetrahydrofuran-2-carboxamide]	0.68
COc1c([C@H]2[C@H](C(=O)Nc3ccnc(C(=O)NNC4CC4)c3)O[C@@](C)(C(F)(F)F)[C@H]2C)ccc(F)c1F [Example 23, (2R,3S,4S,5R)—N-(2-(2-Cyclopropylhydrazine-1-carbonyl)pyridin-4-yl)-3-(3,4-difluoro-2-methoxyphenyl)-4,5-dimethyl-5-(trifluoromethyl)tetrahydrofuran-2-carboxamide]	2.85
COc1c([C@H]2[C@H](C(=O)Nc3ccnc(C(=O)NN(C)C)c3)O[C@@](C)(C(F)(F)F)[C@H]2C)ccc(F)c1F [Example 24, (2R,3S,4S,5R)-3-(3,4-Difluoro-2-methoxyphenyl)-N-(2-(2,2-dimethylhydrazine-1-carbonyl)pyridin-4-yl)-4,5-dimethyl-5-(trifluoromethyl)tetrahydrofuran-2-carboxamide]	2.12
COc1c([C@H]2[C@H](C(=O)Nc3ccnc(C(=O)C(N)=O)c3)O[C@@](C)(C(F)(F)F)[C@H]2C)ccc(F)c1F [Example 26, (2R,3S,4S,5R)—N-(2-(2-Amino-2-oxoacetyl)pyridin-4-yl)-3-(3,4-difluoro-2-methoxyphenyl)-4,5-dimethyl-5-(trifluoromethyl)tetrahydrofuran-2-carboxamide trifluoroacetate]	1.09
COc1c([C@H]2[C@H](C(=O)Nc3ccc(F)c(C(=N)N)c3)O[C@@](C)(C(F)(F)F)[C@H]2C)ccc(F)c1F [Example 27, (2R,3S,4S,5R)—N-(3-Carbamimidoyl-4-fluorophenyl)-3-(3,4-difluoro-2-methoxyphenyl)-4,5-dimethyl-5-(trifluoromethyl)tetrahydrofuran-2-carboxamide]	< 0.16
[2H]C([2H])([2H])O/N=C(\N)c1cc(NC(=O)[C@@H]2O[C@@](C)(C(F)(F)F)[C@@H](C)[C@H]2c2ccc(F)c(F)c2OC)ccn1 [Example 37, (2R,3S,4S,5R)-3-(3,4-Difluoro-2-methoxyphenyl)-N-(2-((Z)—(N′-methoxy-d3)carbamimidoyl)pyridin-4-yl)-4,5-dimethyl-5-(trifluoromethyl)tetrahydrofuran-2-carboxamide]	1.86
COc1c([C@H]2[C@H](C(=O)Nc3ccnc(OCC(O)C4(O)CC4)c3)O[C@@](C)(C(F)(F)F)[C@H]2C)ccc(F)c1F (stereo partly drawn) [Example 39, (2R,3S,4S,5R)-3-(3,4-Difluoro-2-methoxyphenyl)-N-(2-(2-hydroxy-2-(1-hydroxycyclopropyl)ethoxy)pyridin-4-yl)-4,5-dimethyl-5-(trifluoromethyl)tetrahydrofuran-2-carboxamide]	2.68
